Results taken from US6737383B1, “Herbicidal oxadiazolidines” (priority 1999, dated 2004).

Legend:
blackgrass = assay: Test B pre/postemergence blackgrass; type: in vivo, Alopecurus myosuroides
Summary of the method: (§1)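 Test chemicals in a non-phytotoxic solvent mixture with surfactant were sprayed preemergence onto planted seeds and postemergence onto plants 2 to 18 cm tall (1- to 4-leaf stage). After twelve to sixteen days in a greenhouse, injury was visually rated against untreated controls from 0 (no effect) to 10 (complete control).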

surinam grass = assay: Test B pre/postemergence surinam grass; type: in vivo, Brachiaria decumbens
Summary of the method: as §1

cocklebur = assay: Test B pre/postemergence cocklebur; type: in vivo, Xanthium strumarium
Summary of the method: as §1

corn = assay: Test B pre/postemergence corn; type: in vivo, Zea mays
Summary of the method: as §1

crabgrass = assay: Test B pre/postemergence crabgrass; type: in vivo, Digitaria sanguinalis
Summary of the method: as §1

giant foxtail = assay: Test B pre/postemergence giant foxtail; type: in vivo, Setaria faberii
Summary of the method: as §1

morningglory = assay: Test B pre/postemergence morningglory; type: in vivo, Ipomoea hederacea
Summary of the method: as §1

pigweed = assay: Test B pre/postemergence pigweed; type: in vivo, Amaranthus retroflexus
Summary of the method: as §1

rape = assay: Test B pre/postemergence rape; type: in vivo, Brassica napus
Summary of the method: as §1

soybean = assay: Test B pre/postemergence soybean; type: in vivo, Glycine max
Summary of the method: as §1

sugar beet = assay: Test B pre/postemergence sugar beet; type: in vivo, Beta vulgaris
Summary of the method: as §1

velvetleaf = assay: Test B pre/postemergence velvetleaf; type: in vivo, Abutilon theophrasti
Summary of the method: as §1

wild oat = assay: Test B pre/postemergence wild oat; type: in vivo, Avena fatua
Summary of the method: as §1

rice = assay: Test B flood test rice; type: in vivo, Oryza sativa
Summary of the method: (§2)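 Each value is a visual injury score relative to controls, with 10 meaning complete control and 0 no effect. Evaluation took place twelve to sixteen days after the 2-leaf-stage plants were treated and kept in the greenhouse.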

duck salad = assay: Test B flood test duck salad; type: in vivo, Heteranthera limosa
Summary of the method: as §2

bamyardgrass = assay: Test B flood test barnyardgrass; type: in vivo, Echinochloa crus-galli
Summary of the method: as §2

[1] = Postemergence, Rate 62 g/ha, scale 0 to 10, 0 is no effect, 10 is complete control
[2] = Postemergence, Rate 125 g/ha, scale of 0 to 10 where 0 is no effect and 10 is complete control
[3] = Postemergence, Rate 250 g/ha, scale of 0 to 10, 0 is no effect, 10 is complete control
[4] = Preemergence, Rate 62 g/ha, scale of 0 to 10 where 0 is no effect and 10 is complete control
[5] = Preemergence, Rate 125 g/ha, scale of 0 to 10 where 0 is no effect and 10 is complete control
[6] = Preemergence, Rate 250 g/ha, scale 0 to 10 (0 no effect, 10 complete control)
[7] = Preemergence, Rate 500 g/ha, scale of 0 to 10 where 0 is no effect and 10 is complete control
[8] = Rate 500 g/ha, Postemergence, scale 0 to 10, 0 is no effect, 10 is complete control
[9] = Rate 62 g/ha, flood test species, Pre-emergence, visual evaluation after twelve to sixteen days
[10] = Rate 125 g/ha, under heading Pre-emergence, flood test species, visual evaluation after twelve to sixteen days
[11] = Rate 250 g/ha, Pre-emergence (flood test species), scale 0 to 10, 0 is no effect, 10 is complete control
[12] = Rate 500 g/ha, Pre-emergence section of Table B, 0 to 10 scale (0 no effect, 10 complete control)

C#CC=CC(C)(C)n1c(=O)on(C(=O)N(c2ccccc2)C(C)C)c1=O [Compound 655]
Plant response rating, Blackgrass (blackgrass; [1]): 0 | Blackgrass plant response rating (blackgrass; [2]): 0 | Blackgrass plant response rating (blackgrass; [3]): 0 | Blackgrass plant response rating (blackgrass; [4]): 0 | Blackgrass plant response rating (blackgrass; [5]): 0 | Plant response rating, Blackgrass (blackgrass; [6]): 2 | Plant response rating, Blackgrass (blackgrass; [7]): 3 | Blackgrass plant response rating (blackgrass; [8]): 3 | Plant response rating, B. signalgrass (surinam grass; [1]): 0 | Plant response rating, B. signalgrass (surinam grass; [2]): 0 | B. signalgrass plant response rating (surinam grass; [3]): 2 | B. signalgrass plant response rating (surinam grass; [4]): 0 | B. signalgrass plant response rating (surinam grass; [5]): 0 | Plant response rating, B. signalgrass (surinam grass; [6]): 0 | Plant response rating, B. signalgrass (surinam grass; [7]): 0 | B. signalgrass plant response rating (surinam grass; [8]): 2 | Plant response rating, Cocklebur (cocklebur; [1]): 0 | Cocklebur plant response rating (cocklebur; [2]): 0 | Cocklebur plant response rating (cocklebur; [3]): 0 | Cocklebur plant response rating (cocklebur; [4]): 0 | Cocklebur plant response rating (cocklebur; [5]): 0 | Plant response rating, Cocklebur (cocklebur; [6]): 0 | Plant response rating, Cocklebur (cocklebur; [7]): 0 | Cocklebur plant response rating (cocklebur; [8]): 0 | Plant response rating, Corn (corn; [1]): 0 | Corn plant response rating (corn; [2]): 0 | Corn plant response rating (corn; [3]): 0 | Corn plant response rating (corn; [4]): 0 | Corn plant response rating (corn; [5]): 0 | Plant response rating, Corn (corn; [6]): 0 | Plant response rating, Corn (corn; [7]): 0 | Corn plant response rating (corn; [8]): 0 | Plant response rating, Crabgrass (crabgrass; [1]): 1 | Crabgrass plant response rating (crabgrass; [2]): 8 | Crabgrass plant response rating (crabgrass; [3]): 8 | Crabgrass plant response rating (crabgrass; [5]): 8 | Plant response rating, Crabgrass (crabgrass; [6]): 8 | Plant response rating, Crabgrass (crabgrass; [7]): 9 | Crabgrass plant response rating (crabgrass; [8]): 9 | Plant response rating, Giant foxtail (giant foxtail; [1]): 1 | Giant foxtail plant response rating (giant foxtail; [2]): 7 | Giant foxtail plant response rating (giant foxtail; [4]): 3 | Giant foxtail plant response rating (giant foxtail; [5]): 9 | Plant response rating, Giant foxtail (giant foxtail; [6]): 9 | Plant response rating, Giant foxtail (giant foxtail; [7]): 9 | Giant foxtail plant response rating (giant foxtail; [8]): 9 | Plant response rating, Morningglory (morningglory; [1]): 9 | Morningglory plant response rating (morningglory; [3]): 9 | Morningglory plant response rating (morningglory; [4]): 0 | Morningglory plant response rating (morningglory; [5]): 0 | Plant response rating, Morningglory (morningglory; [6]): 0 | Plant response rating, Morningglory (morningglory; [7]): 0 | Plant response rating, Redroot pigweed (pigweed; [1]): 1 | Redroot pigweed plant response rating (pigweed; [2]): 2 | Redroot pigweed plant response rating (pigweed; [4]): 0 | Redroot pigweed plant response rating (pigweed; [5]): 2 | Plant response rating, Redroot pigweed (pigweed; [6]): 2 | Plant response rating, Redroot pigweed (pigweed; [7]): 4 | Redroot pigweed plant response rating (pigweed; [8]): 7 | Plant response rating, Rape (rape; [1]): 0 | Rape plant response rating (rape; [2]): 2 | Rape plant response rating (rape; [4]): 0 | Rape plant response rating (rape; [5]): 0 | Plant response rating, Rape (rape; [6]): 0 | Plant response rating, Rape (rape; [7]): 0 | Rape plant response rating (rape; [8]): 3 | Plant response rating, Soybean (soybean; [1]): 2 | Soybean plant response rating (soybean; [2]): 2 | Soybean plant response rating (soybean; [4]): 0 | Soybean plant response rating (soybean; [5]): 0 | Plant response rating, Soybean (soybean; [6]): 0 | Plant response rating, Soybean (soybean; [7]): 0 | Soybean plant response rating (soybean; [8]): 4 | Plant response rating, Sugarbeets (sugar beet; [1]): 0 | Sugarbeets plant response rating (sugar beet; [2]): 0 | Sugarbeets plant response rating (sugar beet; [4]): 0 | Sugarbeets plant response rating (sugar beet; [5]): 0 | Plant response rating, Sugarbeets (sugar beet; [6]): 0 | Plant response rating, Sugarbeets (sugar beet; [7]): 0 | Sugarbeets plant response rating (sugar beet; [8]): 2 | Plant response rating, Velvetleaf (velvetleaf; [1]): 0 | Velvetleaf plant response rating (velvetleaf; [2]): 0 | Velvetleaf plant response rating (velvetleaf; [4]): 0 | Velvetleaf plant response rating (velvetleaf; [5]): 0 | Plant response rating, Velvetleaf (velvetleaf; [6]): 0 | Plant response rating, Velvetleaf (velvetleaf; [7]): 0 | Velvetleaf plant response rating (velvetleaf; [8]): 0 | Plant response rating, Wild oats (wild oat; [1]): 0 | Wild oats plant response rating (wild oat; [2]): 0 | Wild oats plant response rating (wild oat; [4]): 0 | Wild oats plant response rating (wild oat; [5]): 0 | Plant response rating, Wild oats (wild oat; [6]): 0 | Plant response rating, Wild oats (wild oat; [7]): 0 | Wild oats plant response rating (wild oat; [8]): 1 | Plant response rating, Rice (0 to 10 scale, 0 is no effect, 10 is complete control) (rice; [9]): 0 | Rice plant response rating (0 to 10 scale, 0 is no effect, 10 is complete control) (rice; [10]): 0 | Rice plant response rating (rice; [11]): 0 | Rice plant response rating (rice; [12]): 0 | Plant response rating, Ducksalad (0 to 10 scale, 0 is no effect, 10 is complete control) (duck salad; [9]): 0 | Ducksalad plant response rating (0 to 10 scale, 0 is no effect, 10 is complete control) (duck salad; [10]): 0 | Ducksalad plant response rating (duck salad; [11]): 0 | Ducksalad plant response rating (duck salad; [12]): 0 | Plant response rating, Barnyardgrass (0 to 10 scale, 0 is no effect, 10 is complete control) (bamyardgrass; [9]): 0 | Barnyardgrass plant response rating (0 to 10 scale, 0 is no effect, 10 is complete control) (bamyardgrass; [10]): 0 | Barnyardgrass plant response rating (bamyardgrass; [11]): 0 | Barnyardgrass plant response rating (bamyardgrass; [12]): 0
